Broadly, the IC50 is the concentration at which inhibition is half-maximal. Lower therefore signals inhibition by little substance.

One molecule from paper PMC4380987 (Protein Science : A Publication of the Protein Society, 2014) can be followed below.

The assay addresses Edmanase (engineered cruzain) (Trypanosoma cruzi, UniProt P25779, C147G/G187S/A260C/L282Y). The assay is classed as biochemical.

The structures appear in SMILES notation.

Turning to `CC(=O)c1nc(Nc2ccccc2)sc1C` [1-(2-anilino-5-methyl-1,3-thiazol-4-yl)-ethanone], the IC50 was found to be 1140 µM.
